Entries after “also recorded” stand apart in the source; their conditions may differ. Where a name gives a salt, the structure may show the parent alone. Read-outs that look alike come from different tables or passages of the source.
Tests used:
[1] = system: formalin-induced nociceptive behavior; settings: pretreatment, literature, cited from earlier work
[2] = system: NMDA-induced nociceptive behaviors; settings: Okano et al.; cited from earlier work
[3] = system: NMDA receptor in rat cortical membranes; settings: rat cortical membranes (Ebert); cited from earlier work
[4] = system: NMDA-induced depolarization; settings: in vitro (Ebert), cited from earlier work
[5] = system: mu-type of the opioid receptor; settings: Neil; cited from earlier work
[6] = system: pain syndromes unresponsive to morphine; settings: anecdotal case reports; cited from earlier work
[7] = target: NMDA receptor, rat forebrain; settings: used to calculate Ki; no footnote a; read-out: Kd (CGS19755), forebrain; cited from earlier work
[8] = system: morphine tolerance; settings: Elliott et al.; cited from earlier work
[9] = system: spinal cord neurons; settings: Dickenson et al.; cited from earlier work
[10] = system: NMDA receptors; settings: cited from earlier work
[11] = system: rat; format: in vivo
[12] = system: NMDA-induced behaviors; assay: Intrathecal NMDA-induced nociceptive behaviors
[13] = system: rat; assay: Tail-flick test, intrathecal, cumulative dose-response and time course; settings: for blockade of antinociceptive effect of l-methadone: naloxone 30 μg/rat + l-methadone 80 μg/rat IT; for antinociceptive (analgesic) effect in tail-flick test: up to cumulative 460 μg/rat
[14] = system: rat; assay: Formalin test (formalin-induced flinching), intrathecal drug
[15] = system: NMDA receptor (noncompetitive MK-801 site), rat forebrain; format: binding
[16] = system: humans; settings: humans (Olsen); cited from earlier work
[17] = system: mice; settings: mice (Smits); cited from earlier work
[18] = system: rat; settings: rats (Ingoglia); cited from earlier work

3-amino-5-phosphonovaleric acid [APV]
effect on nociceptive responses in formalin test [1]: reduces | antagonism of NMDA-induced nociceptive behaviors [2]: antagonized

CCC(=O)C(CC(C)N(C)C)(c1ccccc1)c1ccccc1 (racemic) [dl-Methadone]
affinity for the NMDA receptor [3]: low μm affinity | effect on NMDA-induced depolarization [4]: reduced NMDA-induced depolarizations | effect on NMDA-induced depolarization ([4]; listed as racemic methadone): reduces NMDA-induced depolarization | binding to mu-type of the opioid receptor [5]: binds preferentially | management of pain syndromes unresponsive to morphine [6]: successful management

O=C(O)[C@@H]1C[C@H](CP(=O)(O)O)CCN1 [CGS19755]
Kd [7]: 0.024 µM

COc1ccc2c(c1)[C@]13CCCC[C@@H]1[C@H](C2)N(C)CC3 [Dextromethorphan]
effect on development of tolerance to morphine [8]: attenuates and reverses | effect on wind up of spinal cord neurons [9]: suppresses | effect on nociceptive responses in formalin test [1]: attenuates nociceptive responses | effect on nociceptive responses in formalin test ([1]; listed as dextromethorphan): reduces

CNC1(c2ccccc2Cl)CCCCC1=O (centres unmarked) [Ketamine]
effect on nociceptive responses in formalin test [1]: reduces

O=C(O)[C@@H]1C[C@H]2C[C@@H](CP(=O)(O)O)CC[C@H]2CN1 [LY274614]
effect on development of tolerance to morphine [8]: attenuates and reverses

C[C@]12N[C@H](Cc3ccccc31)c1ccccc12 [MK-801, (+)-5 methyl-10,11-dihydro-5H-dibenzo[a,d]cyclo-hepten-5, 10-imine hydrogen maleate]
effect on development of tolerance to morphine [8]: attenuates and reverses | effect on nociceptive responses in formalin test [1]: reduces

CN1CC[C@]23c4c5ccc(O)c4O[C@H]2[C@@H](O)C=C[C@H]3[C@H]1C5 [Morphine]
binding to NMDA receptors [10]: do not bind to NMDA receptors | Morphine ED50 (95% CI) ([11]; SALINE + MORPHINE, Day 2 (so in the source)): 37.6 (28.5-56.7) ug/rat | Morphine ED50 (95% CI) ([11]; SALINE, Day 1): 1.0 (0.5-1.8) ug/rat

CN[C@H](CC(=O)O)C(=O)O [NMDA, N-methyl-D-aspartate]
ED99 dose of NMDA ([12]; intrathecal): 2.4 nmol/rat | NMDA ED50 (95% CI) ([12]; pretreatment with saline or d-methadone 250 μg/rat): 1.3 (1.0-1.6) nmol/rat IT

C=CCN1CC[C@]23c4c5ccc(O)c4O[C@H]2C(=O)CC[C@@]3(O)[C@H]1C5 [Naloxone]
effect of naloxone alone on base-line tail-flick latencies / antinociception ([13]; 30 μg/rat spinal): did not affect base-line tail-flick latencies or produce an antinociceptive (analgesic) response | blockade of antinociceptive effect of l-methadone [13]: completely blocked | blockade of antinociceptive effect of l-methadone ([13]; listed as naloxone): completely blocked; also recorded: blocks; also recorded: effectively antagonized | duration of blockade of l-methadone effect ([13]; naloxone 30 μg/rat vs l-methadone 80 μg/rat): at least 75 minutes | reversal by naloxone of antinociceptive effect of d-methadone ([14]; naloxone 30 μg/rat + d-methadone 250 μg/rat IT): did not affect; also recorded: not reversed; also recorded: not blocked

O=C1CC[C@@]2(O)[C@H]3Cc4ccc(O)c5c4[C@@]2(CCN3CC2CC2)[C@H]1O5 [Naltrexone]
displacement of [3H]MK-801 binding [15]: did not displace | Ki ([15]; read-out: [3H]MK-801 Ki, forebrain): > 100 µM

CCC(=O)C(C[C@H](C)N(C)C)(c1ccccc1)c1ccccc1 [d-Methadone, (S)-(+)-methadone]
analgesic potency vs l-methadone (less potent) [16]: 50 fold | opioid-like locomotor activity [17]: does not produce opioid-like locomotor activity | blockade of an ED99 dose of NMDA ([12]; 250 μg (809 nmol)/rat, NMDA 2.4 nmol/rat): completely blocked | increase of NMDA ED50 ([12]; d-methadone 250 μg/rat): more than 3 fold | activity following intraventricular administration [18]: inactive | antinociceptive (analgesic) effect in tail-flick test ([13]; intrathecal): no antinociceptive effects | antinociceptive (analgesic) effect in tail-flick test ([13]; intrathecal, listed as d-methadone): None of the rats that received d-methadone became an analgesic responder; also recorded: no analgesia | effect on phase 2 flinching vs saline ([14]; 250 μg/rat IT, with or without naloxone 30 μg/rat): significantly reduce | decrease in phase 2 flinching ([14]; 320 μg/rat spinal): 68% | effect on number of flinches, phase 1 ([14]; IT 32, 160, 320 μg/rat, 0-10 minutes): did not affect; also recorded: not during phase 1 | effect on flinching behavior, phase 2 ([14]; IT 32, 160, 320 μg/rat, 10-60 minutes): dose-dependently reduces | development of morphine tolerance ([11]; rat, in vivo): prevented the development of morphine tolerance | effect of d-methadone alone on morphine ED50 ([11]; rat, in vivo): did not alter | morphine ED50 in d-methadone+morphine group ([11]; rat, in vivo): not significantly increased

CCC(=O)C(C[C@@H](C)N(C)C)(c1ccccc1)c1ccccc1 [l-Methadone, (R)-(-)-methadone]
time of peak analgesic effect ([13]; 40 μg/rat spinal, time course study): 15 min | ED50, tail-flick test ([13]; IT, cumulative dose-response): 15.6 ug/rat | antinociceptive (analgesic) effect in tail-flick test ([13]; intrathecal): dose-dependent antinociception | ED50, tail-flick antinociception ([13]; intrathecal, 95% CI 7.0-29.8): 15.6 μg/rat | approximately ED90 antinociceptive dose ([13]; spinal, tail-flick test): ~80 μg/rat
